{"source": "patent US20090269753A1", "about": "(priority 2007, published 2009)", "key": {"fasl": {"system": "fasl", "assay": "fasl real-time RT-PCR in SRC-1-/- osteoclasts transfected with SRC-1 WT or P1272S", "assay_type": "cell-based, mice", "settings": "estradiol 10 nM or 40H-Tamoxifen 1 μM, 24 h"}, "[1]": {"assay": "Hip and lumbar BMD by DXA at baseline and after 12 months of tamoxifen treatment", "assay_type": "in vivo, women", "description": "Patients were enrolled after they had completed all primary surgery, radiation, and adjuvant chemotherapy."}, "[2]": {"settings": "SRC-1-/- osteoclasts with P1272S SRC-1"}, "[3]": {"settings": "SRC-1-/- osteoclasts with transfected Flag-SRC-1 WT vs vector alone"}}}
{"smiles": "C[C@]12CC[C@@H]3c4ccc(O)cc4CC[C@H]3[C@@H]1CC[C@@H]2O", "note": "[Estrogen, estradiol]", "values": [{"measurement": "Induction of fasl", "setting": "fasl; [2]", "value": "failed to upregulate fasl"}, {"measurement": "Induction of fasl", "setting": "fasl; [3]", "value": "detectable"}]}
{"smiles": "CC/C(=C(\\c1ccccc1)c1ccc(OCCN(C)C)cc1)c1ccccc1", "note": "[Tamoxifen, tamoxifen]", "values": [{"measurement": "Induction of fasl", "setting": "fasl; [2]", "value": "failed to upregulate fasl"}, {"measurement": "Induction of fasl", "setting": "fasl; [3]", "value": "detectable"}, {"measurement": "Lumbar BMD decrease", "setting": "[1]; P1272S carriers (n=4), p=0.04 vs women without the SNP", "value": 6.4, "unit": "%"}, {"measurement": "hip BMD decrease", "setting": "[1]; SNP carriers (n=4), p=0.08 vs WT group", "value": 4.3, "unit": "%"}, {"measurement": "hip BMD decrease", "setting": "[1]; WT group (n=102)", "value": 0.6, "unit": "%"}, {"measurement": "Lumbar BMD decrease", "setting": "[1]; women without the SNP (n=107)", "value": 1.3, "unit": "%"}]}
